Source: the SangsterLogP compilation

Tests used:
[1] = from Afshan, A.; Jehangir, M.; Amin, W.; Mujahid, A. (2000). Study of various esters of ethylcysteine acid dimer as brain perfusion imaging agents and formulation into single vial kit for labelling with …; conditions: pH 7.5
[2] = method code SF, from DOI: 10.1016/s0223-5234(99)80097-x; conditions: pH 7.5
[3] = method code SF-HPLC, from DOI: 10.1002/ps.2780440103; conditions: pH 2.0
[4] = method code SF-HPLC, from DOI: 10.1021/jm030477w, PMID: 15084119; conditions: pH 7.4
[5] = method code SF-AS, from PMID: 6540096; conditions: pH 7.5
[6] = not given; remark: listed apart in the source
[7] = method code SF-RC, from DOI: 10.1021/jm701375u, PMID: 18307287; conditions: pH 7.4
[8] = method code SF-HPLC, from DOI: 10.1006/pest.1998.2384
[9] = not given; remark: listed apart in the source
[10] = method code G, from Wang, L.; Li, H.; Wang, X.; Zhang, Z. (1993). Determination of aqueous solubilities and partition coefficients of substitutive ethylketone congeners by generator column. Huanjing Huaxue, 12(2)151-154.
[11] = from Comini, L.; Núñez Montoya, S.; Argüello, G.; Cabrera, J. (2006). Partition coefficient (log P) determination of anthraquinone derivatives isolated from Heterophyllaea pustulata Hook, f. (Rubiaceae). …; conditions: pH 7.4
[12] = method code SF-HPLC, from DOI: 10.1021/jf0483669, PMID: 15913295; conditions: pH 7.4
[13] = method code SF-AS, from DOI: 10.1021/jm9800301, PMID: 9748357; conditions: pH 7.4
[14] = method code SF-HPLC, from PMID: 1854437; conditions: pH 7.4
[15] = method code …, from Wiggins, H.; Karcher, A.; Michael Wilson, J.; Robb, I. (2008). Determining Octanol/Water Partitioning Coefficients for Industrial Surfactants. Proc. 15th Annual International Petroleum & Biofuels …
[16] = method code SF-AS, from DOI: 10.1016/0223-5234(94)90120-1; conditions: pH 7.4
[17] = method code SF-HPLC, from DOI: 10.1021/js950346l, PMID: 9109056
[18] = not given; remark: listed apart in the source
[19] = method code SF-HPLC, from DOI: 10.1016/j.apradiso.2007.04.014, PMID: 17574425; conditions: pH 7.4
[20] = not given; remark: listed apart in the source
[21] = method code SF-AS, from DOI: 10.1248/cpb.42.1084, PMID: 8069960
[22] = method code SF, from DOI: 10.1080/10826070801924857
[23] = method code SF, from DOI: 10.1016/s0960-894x(04)00268-9, PMID: 15109667; conditions: pH 7.4
[24] = method code SF-AS, from DOI: 10.1021/jm00296a014, PMID: 5418493
[25] = not given; remark: listed apart in the source
[26] = method code SF, from DOI: 10.1023/a:1012119527214, PMID: 9453056; conditions: pH 12.5
[27] = method code SF-AS, from PMID: 3774812; conditions: pH 4.0
[28] = method code SF-AS, from DOI: 10.1002/chin.199416148, PMID: 8117185
[29] = method code SF, from DOI: 10.1016/s0021-9673(03)00534-x, PMID: 12800922; conditions: pH 11.0
[30] = method code SF-AS, from M. Kuchar, J. Tomkova, V. Rejholec, & O. Roubinek. (1992). Some problems of the chromatographic evaluation of lipophicity. In Kuchar, M. (Ed.) QSAR in Design of Bioactive Compounds (pp. 65-81). Prous …; conditions: pH 3.4
[31] = not given; remark: listed apart in the source

CCCCOC(=O)[C@H](CS)NCCN[C@@H](CS)C(=O)OCCCC
logD [1]: 2.9

Cc1c(O)c(=O)ccn1CCOC(=O)c1ccccc1
logD [2]: 1.04

COC(=O)[C@H]1O[C@@H](Oc2ccc3ccc(=O)oc3c2)[C@H](O)[C@@H](O)[C@@H]1O
logD [3]: -1.08

FCCCNc1ccc(-c2cn3cc(I)ccc3n2)cc1
logD [4]: 4.6

CN(C)C(=O)O[C@H]1N=C(c2ccccc2)c2cc(Cl)ccc2N(C)C1=O
logD [5]: 2.88

CC(=O)CC(c1ccccc1)c1c(O)c2ccccc2oc1=O (centres undefined)
logP: 2.4

CNC12CC(CN)CCC1CCc1ccccc12 (centres undefined)
logP [6]: 2

Brc1cccc(N2CCN(Cc3cc4ccccn4n3)CC2)n1
logD [7]: 1.78

CCCCCCN1CCN(Cc2ccc(Cl)nc2)C1=N[N+](=O)[O-]
logP [8]: 2.2

CC(C)(O)c1cc(Cl)c(Nc2nc3ccncc3c3c(=O)[nH]ccc23)c(Cl)c1
logP [9]: 1.34

Cc1ccc(SCC(=O)c2ccc(Cl)cc2)cc1
logP [10]: 3.43

COc1c(C)c(O)cc2c1C(=O)c1ccccc1C2=O
logD [11]: 2.83

FCCNc1ccc(-c2cn3cc(I)ccc3n2)cc1
logD [4]: 4.41

CCc1c(O)c(=O)ccn1CCOC(=O)c1ccccc1
logD [2]: 1.52

O=c1c(-c2ccc(O)cc2)coc2cc(O[C@@H]3O[C@H](CO)[C@@H](O)[C@H](O)[C@H]3O)ccc12
logD [12]: 0.32

Cc1ccc(C(=O)CSc2ccccc2)cc1
logP [10]: 2.7

CC1(C)Oc2ccc(C#N)cc2C(N2CCCC2=O)C1O (centres undefined)
logP: 2.1

COc1ccc(CNC(=O)C(=O)c2c[nH]c3ccc([N+](=O)[O-])cc23)cc1
logD [13]: 2.17

CNC12CCCCC1CC(C)c1ccccc12 (centres undefined)
logP [6]: 3.96

CCCOC(=O)[C@H](CS)NCCN[C@@H](CS)C(=O)OCCC
logD [1]: 2.5

Oc1ccc([C@H]2COc3cc(O)ccc3C2)cc1
logD [12]: 3.2

CCCCCCOC(=O)n1cnc(C)c1CSCCNC(=NC#N)NC
logD [14]: 3.1

CCCCCCCCCCCCOCCOCCOCCOCCOCCOCCO
logP [15]: 4.81

S=C1SCN(Cc2ccccc2)CN1CCc1ccccc1
logD [16]: 5

CN1C(C(=O)Nc2ccccn2)=C(O)c2ccccc2S1(=O)=O
logP [17]: 1.86

NC(=O)C(CCN1CCCCC1)c1ccccc1Cl (centres undefined)
logP [18]: 2.46

O=C(CCl)Nc1ccc2ncnc(Nc3cc(Cl)c(Cl)cc3F)c2c1
logD [19]: 4.12

O=C(NC1CCCCCC1)NS(=O)(=O)c1cnccc1Nc1cccc(C(F)(F)F)c1
logP [20]: 2.02

COc1ccc2[nH]c3c(c2c1)CCNc1cc(Cl)ccc1-3
logP [21]: 4.24

S=C1SCN(Cc2ccccc2)CN1Cc1ccccc1
logD [16]: 4.9

Cc1c(O)cc2c(c1O)C(=O)c1ccccc1C2=O
logD [11]: 2.36

CCCCCCOC(=O)OC[C@@H]1O[C@H](n2ccc(N)nc2=O)CS1
logP [22]: 1.57

CC(=O)OC(CC#CCS(=O)(=O)c1ccccc1)Cn1ccnc1[N+](=O)[O-] (centres undefined)
logD [23]: 1.35

CC(C(=O)O)(c1ccccc1)c1ccccc1
logP [24]: 2.69

CCCCCCCCOC(=O)OC[C@@H]1O[C@H](n2ccc(N)nc2=O)CS1
logP [22]: 1.72

O=C1CN=C(c2ccccc2F)c2cc(Cl)ccc2N1CC(F)(F)F
logP [25]: 3.36

CCN(CC)CC(=O)Nc1c(C)cc(C)cc1C
logD [26]: 2.73

CCCCOC(=O)n1cnc(CSCCNC(=NC#N)NC)c1C
logD [14]: 2.15

O=C(O)C1c2ccccc2Cc2ccccc21
logP [24]: 2.78

O=C(O)Cc1sc(-c2ccccc2)nc1-c1ccc(Cl)cc1
logD [27]: 2.72

O=C(O)COC(=O)Cc1ccccc1Nc1c(Cl)cccc1Cl
logP [17]: 2.7

CC(C)N(CCC(CCN1CCCCC1)(C(N)=O)c1ccccc1Cl)C(C)C (centres undefined)
logP [18]: 4.78

O=C(NCC(F)(F)F)NS(=O)(=O)c1cnccc1NC1CCCCCC1
logP [20]: 0.95

O=C(CCN1CCCC1)CN1C(=O)C2CC=CCC2C1=O (centres undefined)
logP [28]: 1.11

Oc1ccccc1N1CCN(Cc2cnn3ccccc23)CC1
logD [7]: 2.15

CC(C)(C)NCC(O)COc1cccc2c1CCC(=O)N2 (centres undefined)
logD [29]: 1.49

O=C(O)CCc1ccc(OCc2ccccc2)cc1
logD [30]: 3.31

Fc1ccccc1C1=NCC(=S)N(CC(F)(F)F)c2ccc(Cl)cc21
logP [25]: 4.03

CC(CC(=O)O)c1ccc(OCc2ccccc2)cc1 (centres undefined)
logD [30]: 3.58

CCc1cccc(N(C)C(=N)Nc2cc(SC)ccc2Cl)c1
logP [31]: 3

CCCCCCCCOCCOCCOCCOCCO
logP [15]: 2.68

O=C(NCc1ccc(F)cc1)C(=O)c1c[nH]c2ccccc12
logD [13]: 2.88

CC(C)(C)NC[C@H](O)COc1ccccc1C1CCCC1
logD [29]: 3.61

CC(=O)OC(CC#CCS(=O)(=O)c1ccc([N+](=O)[O-])cc1)Cn1ccnc1[N+](=O)[O-] (centres undefined)
logD [23]: 1.18

CSC(=NOC(=O)N(C)COC1OC(C(=O)O)C(O)C(O)C1O)C(=O)N(C)C (centres undefined)
logD [3]: -1.98

C[C@H](C(=O)O)c1ccc(-c2ccccc2)c(F)c1
logD [27]: 3.87

O=C1CN=C(c2ccccc2Cl)c2cc([N+](=O)[O-])ccc2N1
logD [5]: 2.5

O=[N+]([O-])N=C1N(Cc2ccccc2)CCN1Cc1ccc(Cl)nc1
logP [8]: 1.49

CSc1cccc(N(C)C(=N)Nc2cc(SC)ccc2Cl)c1
logP [31]: 2.68

COc1ccc2[nH]c3c4ccc(Cl)cc4ncc3c2c1
logP [21]: 4.49

O=C(CCl)Nc1cc2c(Nc3cc(Cl)c(Cl)cc3F)ncnc2cc1OCCOCCOCCOCCOCCOCCF
logD [19]: 4.75

O=C(CCN1CCOCC1)CN1C(=O)C2CC=CCC2C1=O (centres undefined)
logP [28]: 0.56

NS(=O)(=O)c1cc(Cl)c(Nc2nc3ccncc3c3c(=O)[nH]ccc23)c(Cl)c1
logP [9]: 1.17

CCCN(CC)C(CC)C(=O)Nc1c(C)cccc1C (centres undefined)
logD [26]: 3.22
